Reference: PubChem BioAssay (NCI)
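Growth conditions: 96-well plates. Treatment: test compound, 48 hours, 5 concentrations. Analysis: linear interpolation between bracketing concentrations; unreached endpoints set to highest concentration. TGI denotes the concentration required for complete inhibition of growth.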

How the values were obtained:
Assay in all cases: DTP human tumour cell line panel, 48 h
HS 578T breast = test system: HS 578T breast
SN12C renal = test system: SN12C renal
HOP-92 NSCLC = test system: HOP-92 NSCLC
HCC-2998 colon = test system: HCC-2998 colon
UACC-257 melanoma = test system: UACC-257 melanoma
SK-OV-3 ovarian = test system: SK-OV-3 ovarian
K-562 leukemia = test system: K-562 leukemia
UACC-62 melanoma = test system: UACC-62 melanoma
HCT-15 colon = test system: HCT-15 colon
HOP-62 NSCLC = test system: HOP-62 NSCLC
NCI-H23 lung = test system: NCI-H23 lung
OVCAR-8 ovarian = test system: OVCAR-8 ovarian
SR leukemia = test system: SR leukemia
MCF7 breast = test system: MCF7 breast
SF-268 CNS = test system: SF-268 CNS
MOLT-4 leukemia = test system: MOLT-4 leukemia
MDA-MB-435 = test system: MDA-MB-435
NCI/ADR-RES ovarian = test system: NCI/ADR-RES ovarian
IGROV1 ovarian = test system: IGROV1 ovarian
HL-60(TB) leukemia = test system: HL-60(TB) leukemia
OVCAR-5 ovarian = test system: OVCAR-5 ovarian
SK-MEL-2 melanoma = test system: SK-MEL-2 melanoma
MDA-N = test system: MDA-N
A498 renal = test system: A498 renal
BT-549 breast = test system: BT-549 breast
MALME-3M melanoma = test system: MALME-3M melanoma
HT29 colon = test system: HT29 colon
SF-539 CNS = test system: SF-539 CNS
SW-620 colon = test system: SW-620 colon
KM12 colon = test system: KM12 colon
NCI-H226 lung = test system: NCI-H226 lung
CAKI-1 renal = test system: CAKI-1 renal
SK-MEL-28 melanoma = test system: SK-MEL-28 melanoma
LOX IMVI melanoma = test system: LOX IMVI melanoma
RXF 393 renal = test system: RXF 393 renal
T-47D breast = test system: T-47D breast
NCI-H522 lung = test system: NCI-H522 lung
A549 NSCLC = test system: A549 NSCLC
PC-3 prostate = test system: PC-3 prostate
HCT-116 colon = test system: HCT-116 colon
SK-MEL-5 melanoma = test system: SK-MEL-5 melanoma
NCI-H460 lung = test system: NCI-H460 lung
CCRF-CEM leukemia = test system: CCRF-CEM leukemia
EKVX NSCLC = test system: EKVX NSCLC
COLO 205 colon = test system: COLO 205 colon
M14 melanoma = test system: M14 melanoma
ACHN renal = test system: ACHN renal
SF-295 CNS = test system: SF-295 CNS
OVCAR-3 ovarian = test system: OVCAR-3 ovarian
OVCAR-4 ovarian = test system: OVCAR-4 ovarian
786-0 renal = test system: 786-0 renal
DU-145 prostate = test system: DU-145 prostate
SNB-75 CNS = test system: SNB-75 CNS
UO-31 renal = test system: UO-31 renal
RPMI-8226 leukemia = test system: RPMI-8226 leukemia

Question: Which TGI (HS 578T breast) does the source give for `O=C(Nc1c(Cl)cccc1Cl)c1c(Cl)c(Cl)c(Cl)c(Cl)c1-c1nc2ccccc2[nH]1` here?
Answer: > 100 µM

Question: And the TGI (SN12C renal)?
Answer: > 100 µM

Question: And the TGI (HOP-92 NSCLC)?
Answer: > 100 µM

Question: What about the TGI (HCC-2998 colon) of the same compound?
Answer: > 100 µM

Question: And the TGI (UACC-257 melanoma)?
Answer: > 100 µM

Question: And the TGI (SK-OV-3 ovarian)?
Answer: > 100 µM

Question: And the TGI (K-562 leukemia)?
Answer: > 100 µM

Question: What about the TGI (UACC-62 melanoma) of the same compound?
Answer: > 100 µM

Question: And the TGI (HCT-15 colon)?
Answer: > 100 µM

Question: And the TGI (HOP-62 NSCLC)?
Answer: > 100 µM

Question: And the TGI (NCI-H23 lung)?
Answer: > 100 µM

Question: What about the TGI (OVCAR-8 ovarian) of the same compound?
Answer: > 100 µM

Question: And the TGI (SR leukemia)?
Answer: > 100 µM

Question: What about the TGI (MCF7 breast) of the same compound?
Answer: > 100 µM

Question: What about the TGI (SF-268 CNS) of the same compound?
Answer: > 100 µM

Question: And the TGI (MOLT-4 leukemia)?
Answer: > 100 µM

Question: And the TGI (MDA-MB-435)?
Answer: > 100 µM

Question: And the TGI (NCI/ADR-RES ovarian)?
Answer: > 100 µM

Question: What about the TGI (IGROV1 ovarian) of the same compound?
Answer: > 100 µM

Question: And the TGI (HL-60(TB) leukemia)?
Answer: > 100 µM

Question: And the TGI (OVCAR-5 ovarian)?
Answer: > 100 µM

Question: What about the TGI (SK-MEL-2 melanoma) of the same compound?
Answer: > 100 µM

Question: What about the TGI (MDA-N) of the same compound?
Answer: > 100 µM

Question: And the TGI (A498 renal)?
Answer: 54.6 µM

Question: And the TGI (BT-549 breast)?
Answer: > 100 µM

Question: And the TGI (MALME-3M melanoma)?
Answer: > 100 µM

Question: And the TGI (HT29 colon)?
Answer: > 100 µM

Question: And the TGI (SF-539 CNS)?
Answer: > 100 µM

Question: And the TGI (SW-620 colon)?
Answer: > 100 µM

Question: And the TGI (KM12 colon)?
Answer: > 100 µM

Question: And the TGI (NCI-H226 lung)?
Answer: > 100 µM

Question: And the TGI (CAKI-1 renal)?
Answer: > 100 µM

Question: What about the TGI (SK-MEL-28 melanoma) of the same compound?
Answer: > 100 µM

Question: And the TGI (LOX IMVI melanoma)?
Answer: > 100 µM

Question: And the TGI (RXF 393 renal)?
Answer: 45.2 µM

Question: And the TGI (T-47D breast)?
Answer: > 100 µM

Question: What about the TGI (NCI-H522 lung) of the same compound?
Answer: > 100 µM

Question: What about the TGI (A549 NSCLC) of the same compound?
Answer: > 100 µM

Question: And the TGI (PC-3 prostate)?
Answer: > 100 µM

Question: What about the TGI (HCT-116 colon) of the same compound?
Answer: > 100 µM

Question: And the TGI (SK-MEL-5 melanoma)?
Answer: > 100 µM

Question: What about the TGI (NCI-H460 lung) of the same compound?
Answer: > 100 µM

Question: And the TGI (CCRF-CEM leukemia)?
Answer: > 100 µM

Question: And the TGI (EKVX NSCLC)?
Answer: > 100 µM

Question: And the TGI (COLO 205 colon)?
Answer: > 100 µM

Question: What about the TGI (M14 melanoma) of the same compound?
Answer: > 100 µM

Question: And the TGI (ACHN renal)?
Answer: > 100 µM

Question: And the TGI (SF-295 CNS)?
Answer: > 100 µM

Question: What about the TGI (OVCAR-3 ovarian) of the same compound?
Answer: > 100 µM

Question: And the TGI (OVCAR-4 ovarian)?
Answer: > 100 µM

Question: And the TGI (786-0 renal)?
Answer: > 100 µM

Question: And the TGI (DU-145 prostate)?
Answer: > 100 µM

Question: And the TGI (SNB-75 CNS)?
Answer: 84.9 µM

Question: What about the TGI (UO-31 renal) of the same compound?
Answer: > 100 µM

Question: And the TGI (RPMI-8226 leukemia)?
Answer: > 100 µM
